Test results: ChEMBL document CHEMBL5143660, “Investigation on the chemical space of the substituted triazole thio-benzoxazepinone RIPK1 inhibitors” (Eur J Med Chem, 2022)
Calls of active or inactive are those of the source. The rule behind the calls is not given here.

Columns and labels:
[1] = system: Mus musculus; assay: Anti-necroptic activity against mTNFalpha-induced systemic inflammatory response syndrome C57BL/6J mouse model assessed as protection of body temperature pretreated with compound at 5 to 20 mg/kg, IG administered as single dose followed by mTNFalpha injection measured after 2 to 3 hrs; format: functional, organism-based; conditions: dose 5-20 mg/kg, time 2-3 hrs
[2] = target: T1, Mixed lineage kinase domain-like protein (Homo sapiens) (UniProt Q8NB16); assay: Inhibition of MLKL phosphorylation in TSZ-induced human HT-29 cells pretreated with compound followed by TSZ stimulation and measured after 6 hrs by immunoblotting analysis; format: cell-based; conditions: dose 0.5-20 nM, DDE = dose-dependent effect
T1 sequence (whole entry): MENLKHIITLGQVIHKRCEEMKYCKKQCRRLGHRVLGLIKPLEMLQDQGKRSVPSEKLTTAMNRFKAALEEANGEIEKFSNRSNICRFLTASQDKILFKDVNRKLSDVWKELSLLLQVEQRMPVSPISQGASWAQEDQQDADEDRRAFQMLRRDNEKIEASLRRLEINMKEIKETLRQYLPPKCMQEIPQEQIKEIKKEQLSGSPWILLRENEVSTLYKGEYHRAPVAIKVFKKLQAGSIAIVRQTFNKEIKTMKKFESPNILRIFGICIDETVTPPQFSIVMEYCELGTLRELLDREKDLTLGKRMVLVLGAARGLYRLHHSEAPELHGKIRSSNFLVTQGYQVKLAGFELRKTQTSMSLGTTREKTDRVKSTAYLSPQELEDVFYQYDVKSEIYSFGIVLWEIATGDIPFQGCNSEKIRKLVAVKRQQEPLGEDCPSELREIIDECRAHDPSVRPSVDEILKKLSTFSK

[3] = Cytotoxicity against human HT-29 cells assessed as reduction in cell viability; format: toxicity, cell-based
[4] = system: HT-29; assay: Anti-necroptic activity in human HT-29 cells assessed as inhibition of TSZ induced necroptosis measured after 12 hrs by celltiter-glo luminescent cell viability assay; format: functional, cell-based; conditions: dose 0.195-200 nM, DDE = dose-dependent effect
[5] = target: Receptor-interacting serine/threonine-protein kinase 3 (Homo sapiens) (UniProt Q9Y572); assay: Inhibition of RIPK3 phosphorylation in TSZ-induced human HT-29 cells at 20 nM pretreated with compound followed by TSZ stimulation and measured after 2 to 6 hrs by immunoblotting analysis; format: cell-based; conditions: time 2-6 hrs
Sequence of Receptor-interacting serine/threonine-protein kinase 3 (Homo sapiens) (Q9Y572 whole entry, looked up, the tested form may be a part): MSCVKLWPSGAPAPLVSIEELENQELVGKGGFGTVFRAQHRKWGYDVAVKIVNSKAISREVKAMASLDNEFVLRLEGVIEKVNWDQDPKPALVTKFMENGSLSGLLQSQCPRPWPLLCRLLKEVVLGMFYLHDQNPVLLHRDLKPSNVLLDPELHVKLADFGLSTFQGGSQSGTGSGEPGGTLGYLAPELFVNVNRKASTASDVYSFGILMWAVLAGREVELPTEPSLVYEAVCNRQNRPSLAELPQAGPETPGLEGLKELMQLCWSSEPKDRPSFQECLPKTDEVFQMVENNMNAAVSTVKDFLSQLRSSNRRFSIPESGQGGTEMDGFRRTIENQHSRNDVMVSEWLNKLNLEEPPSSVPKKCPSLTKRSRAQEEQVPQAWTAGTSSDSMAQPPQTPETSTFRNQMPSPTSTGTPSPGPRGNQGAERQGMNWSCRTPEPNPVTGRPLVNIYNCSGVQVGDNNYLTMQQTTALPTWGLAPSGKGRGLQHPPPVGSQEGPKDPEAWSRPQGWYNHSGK

[6] = system: U-937; assay: Anti-necroptic activity in human U-937 cells assessed as inhibition of TSZ induced necroptosis pretreated with compound followed by TSZ addition ans measured after 12 hrs by celltiter-glo luminescent cell viability assay; format: functional, cell-based; conditions: dose 0.312-200 nM, DDE = dose-dependent effect
[7] = system: HT-29; assay: Anti-necroptic activity in human HT-29 cells assessed as inhibition of TCZ induced necroptosis measured after 16 hrs by celltiter-glo luminescent cell viability assay; format: functional, cell-based; conditions: dose 0.781-200 nM, DDE = dose-dependent effect
[8] = target: T2, Receptor-interacting serine/threonine-protein kinase 1 (Homo sapiens, UniProt Q13546); assay: Binding affinity to wild-type human partial length RIPK1 (M1 to K305 residues) expressed in bacterial expression system incubated for 1 hr under shaking condition by Kinomescan method
T2 sequence (Q13546 whole entry): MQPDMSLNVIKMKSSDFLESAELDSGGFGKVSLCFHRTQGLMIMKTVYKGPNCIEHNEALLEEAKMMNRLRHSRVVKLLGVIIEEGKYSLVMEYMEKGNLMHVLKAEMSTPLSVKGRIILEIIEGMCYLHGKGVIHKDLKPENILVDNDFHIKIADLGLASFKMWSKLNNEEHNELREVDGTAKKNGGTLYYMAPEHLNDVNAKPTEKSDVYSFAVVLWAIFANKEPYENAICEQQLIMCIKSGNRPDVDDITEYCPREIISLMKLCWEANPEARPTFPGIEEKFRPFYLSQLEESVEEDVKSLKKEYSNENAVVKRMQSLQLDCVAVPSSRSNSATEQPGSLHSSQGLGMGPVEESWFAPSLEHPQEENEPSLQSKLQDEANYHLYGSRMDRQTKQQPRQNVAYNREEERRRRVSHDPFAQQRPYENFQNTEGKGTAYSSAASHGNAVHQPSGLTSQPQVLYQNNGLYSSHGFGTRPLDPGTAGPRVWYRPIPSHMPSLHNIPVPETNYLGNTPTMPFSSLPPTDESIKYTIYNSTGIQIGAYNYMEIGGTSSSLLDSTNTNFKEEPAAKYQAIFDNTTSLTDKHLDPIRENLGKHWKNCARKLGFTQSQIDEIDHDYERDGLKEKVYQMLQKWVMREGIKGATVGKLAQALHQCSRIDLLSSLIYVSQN

[9] = target: Receptor-interacting serine/threonine-protein kinase 3 (Homo sapiens) (UniProt Q9Y572); assay: Inhibition of RIPK3 phosphorylation in TSZ-induced human HT-29 cells pretreated with compound followed by TSZ stimulation and measured after 6 hrs by immunoblotting analysis; format: cell-based; conditions: dose 0.5-20 nM, DDE = dose-dependent effect
[10] = target: T3, Receptor-interacting serine/threonine-protein kinase 1 (Homo sapiens) (UniProt Q13546); assay: Inhibition of RIPK1 phosphorylation in TSZ-induced human HT-29 cells at 20 nM pretreated with compound followed by TSZ stimulation and measured after 2 to 6 hrs by immunoblotting analysis; format: cell-based; conditions: time 2-6 hrs
T3 sequence (whole entry): T2 sequence (Q13546 whole entry)

[11] = target: T3, Receptor-interacting serine/threonine-protein kinase 1 (Homo sapiens); assay: Inhibition of RIPK1 phosphorylation in TSZ-induced human HT-29 cells at 5 to 20 nM pretreated with compound followed by TSZ stimulation and measured after 6 hrs by immunoblotting analysis; format: cell-based; conditions: dose 5-20 nM
[12] = system: HT-29; assay: Inhibition of RIPK1-RIPK3-MLKL pathway in TSZ induced human HT-29 cells assessed as reduction in necrosome formation at 20 nM measured after 6 hrs by Western blot analysis; format: cell-based
[13] = target: T3, Receptor-interacting serine/threonine-protein kinase 1 (Homo sapiens); assay: Inhibition of RIPK1 phosphorylation in TSZ-induced human HT-29 cells pretreated with compound followed by TSZ stimulation and measured after 6 hrs by immunoblotting analysis; format: cell-based; conditions: dose 0.5-20 nM, DDE = dose-dependent effect
[14] = target: Receptor-interacting serine/threonine-protein kinase 3 (Homo sapiens) (UniProt Q9Y572); assay: Inhibition of RIPK3 phosphorylation in TSZ-induced human HT-29 cells at 5 to 20 nM pretreated with compound followed by TSZ stimulation and measured after 6 hrs by immunoblotting analysis; format: cell-based; conditions: dose 5-20 nM
[15] = target: T1, Mixed lineage kinase domain-like protein (Homo sapiens); assay: Inhibition of MLKL phosphorylation in TSZ-induced human HT-29 cells at 5 to 20 nM pretreated with compound followed by TSZ stimulation and measured after 6 hrs by immunoblotting analysis; format: cell-based; conditions: dose 5-20 nM
[16] = target: T1, Mixed lineage kinase domain-like protein (Homo sapiens); assay: Inhibition of downstream MLKL phosphorylation in TSZ-induced human HT-29 cells at 20 nM pretreated with compound followed by TSZ stimulation and measured after 2 to 6 hrs by immunoblotting analysis; format: cell-based; conditions: time 2-6 hrs
[17] = system: L929; assay: Anti-necroptic activity in mouse L929 cells assessed as inhibition of TZ induced necroptosis pretreated with compound followed by TZ addition and measured after 12 hrs by celltiter-glo luminescent cell viability assay; format: functional, cell-based; conditions: dose 0.078-10 µM, DDE = dose-dependent effect
[18] = system: HT-29; assay: Anti-necroptic activity in human HT-29 cells assessed as inhibition of TSZ induced necroptosis measured after 16 to 24 hrs by celltiter-glo luminescent cell viability assay; format: functional, cell-based
[19] = system: Mus musculus; assay: Anti-necroptic activity against mTNFalpha induced C57BL/6J mouse systemic inflammatory response syndrome model assessed as survival rate pretreated with compound at 5 to 20 mg/kg, IG administered as single dose followed by mTNFalpha injection and measured over 60 hrs; format: functional; conditions: dose 5-20 mg/kg

CN1C(=S)[C@@H](NC(=O)c2nc(Cc3ccccc3)n(CCF)n2)COc2ccccc21
Activity [1]: Active | inhibition [2]: Dde | CC50 [3]: > 100000 nM | Activity [4]: Dde | inhibition [5]: 100% | Activity [6]: Dde | Activity [7]: Dde | Kd [8]: 60 nM | inhibition [9]: Dde | inhibition [10]: 100% | inhibition [11]: 100% | inhibition [12]: Active | inhibition [13]: Dde | inhibition [14]: 100% | inhibition [15]: 100% | inhibition [16]: Active | Activity [17]: Dde | EC50 [18]: 8.9 nM | Activity [19]: 90%
